Source: patent US9624206B2, “Antibacterial 1H-indazole and 1H-indole derivatives” (priority 2013, dated 2017)
In brackets after ≈: the same amount, converted by molar mass. Read-outs that look alike come from different tables or passages of the source.

Legend:
Type in all cases: cell-based
[1] = tested on: Acinetobacter baumannii T6474; experiment: Bacterial growth minimal inhibitory concentration (microdilution, CLSI M7-A7); conditions: multiply-resistant strain (in particular quinolone-resistant), cation-adjusted Mueller-Hinton Broth; for MIC: Acinetobacter baumannii, T6474
Description: (§1) Minimal Inhibitory Concentrations (MICs; mg/L) were determined in cation-adjusted Mueller-Hinton Broth by a microdilution method following the description given in “Methods for Dilution Antimicrobial Susceptibility Tests for Bacteria that Grow Aerobically”, Approved standard, 7th ed., Clinical and Laboratory Standards Institute (CLSI) Document M7-A7, Wayne, Pa., USA (2006).
(§2) All Example compounds were tested against several Gram-positive and Gram-negative bacteria. […] K. pneumoniae A-651 and Acinetobacter baumannii T6474 are multiply-resistant strains (in particular quinolone-resistant), while E. coli ATCC25922 and P. aeruginosa ATCC27853 are quinolone-sensitive strains.

[2] = tested on: E. coli ATCC25922; experiment: as above; conditions: quinolone-sensitive strain, cation-adjusted Mueller-Hinton Broth; for MIC: Escherichia coli, ATCC25922
Description: as §1, §2

[3] = tested on: K. pneumoniae A-651; experiment: as above; conditions: multiply-resistant strain (in particular quinolone-resistant), cation-adjusted Mueller-Hinton Broth; for MIC: Klebsiella pneumoniae, A651
Description: as §1, §2

[4] = tested on: P. aeruginosa ATCC27853; experiment: as above; conditions: quinolone-sensitive strain, cation-adjusted Mueller-Hinton Broth; for MIC: Pseudomonas aeruginosa, ATCC27853
Description: as §1, §2

[5] = tested on: wild-type E. coli A-1261; experiment: MIC against wild-type E. coli A-1261 with or without alkaline phosphatase or esterase; conditions: Escherichia coli
Description: Minimal Inhibitory Concentrations (MICs; mg/L) were determined in cation-adjusted Mueller-Hinton Broth by a microdilution method following the description given in “Methods for Dilution Antimicrobial Susceptibility Tests for Bacteria that Grow Aerobically”, Approved standard, 7th ed., Clinical and Laboratory Standards Institute (CLSI) Document M7-A7, Wayne, Pa., USA (2006). The compounds of Examples 48 and 49 were tested against wild-type E. coli A-1261 in the absence of alkaline phosphatase or esterase, in the presence of an alkaline phosphatase and in the presence of an esterase. The corresponding antibacterial test results are given in Table 2 hereafter (MICs in mg/L).

[6] = read-out: MIC for E. coli A-1261 In the absence of alkaline phosphatase or esterase
[7] = read-out: MIC for E. coli A-1261 In the presence of an alkaline phosphatase (2 i.U./mL)
[8] = read-out: MIC for E. coli A-1261 In the presence of an esterase (10 i.U./mL)

Compound	MIC [1] [µg/mL]	MIC [2] [µg/mL]	MIC [3] [µg/mL]	MIC [4] [µg/mL]	MIC [5, 6] [µg/mL]	MIC [5, 7] [µg/mL]	MIC [5, 8] [µg/mL]	MIC for A. Baumannii T6474 [1] [mg/L]	MIC for E. coli ATCC25922 [2] [mg/L]	MIC for K. Pneumoniae A-651 [3] [mg/L]	MIC for P. aeruginosa ATCC27853 [4] [mg/L]
C[C@@](CCn1ncc2c(F)c(C#Cc3ccc(CCO)cc3)ccc21)(C(=O)NO)S(C)(=O)=O [Example 36, (R)-4-(4-fluoro-5-((4-(2-hydroxyethyl)phenyl)ethynyl)-1H-indazol-1-yl)-N-hydroxy-2-methyl-2-(methylsulfonyl)butanamide]	≤ 0.063	≤ 0.063	0.125 (≈ 0.264 µM)	1 (≈ 2.11 µM)	–	–	–	–	–	–	–
C[C@@H](O)c1ccc(C#Cc2ccc3c(cnn3CC[C@](C)(C(=O)NO)S(C)(=O)=O)c2F)cc1 [Example 37, (R)-4-(4-fluoro-5-((4-((R)-1-hydroxyethyl)phenyl)ethynyl)-1H-indazol-1-yl)-N-hydroxy-2-methyl-2-(methylsulfonyl)butanamide]	≤ 0.063	≤ 0.063	0.125 (≈ 0.264 µM)	1 (≈ 2.11 µM)	–	–	–	–	–	–	–
C[C@@](CCn1ncc2c(F)c(C#CC#CC3(O)COC3)ccc21)(C(=O)NO)S(C)(=O)=O [Example 38, (R)-4-(4-fluoro-5-((3-hydroxyoxetan-3-yl)buta-1,3-diyn-1-yl)-1H-indazol-1-yl)-N-hydroxy-2-methyl-2-(methylsulfonyl)butanamide]	32 (≈ 71.2 µM)	0.5 (≈ 1.11 µM)	1 (≈ 2.22 µM)	1 (≈ 2.22 µM)	–	–	–	–	–	–	–
C[C@@](CCn1ncc2c(F)c(C#CC#CC3(CO)CC3)ccc21)(C(=O)NO)S(C)(=O)=O [Example 39, (R)-4-(4-fluoro-5-((1-(hydroxymethyl)cyclopropyl)buta-1,3-diyn-1-yl)-1H-indazol-1-yl)-N-hydroxy-2-methyl-2-(methylsulfonyl)butanamide]	32 (≈ 71.5 µM)	0.25 (≈ 0.559 µM)	0.5 (≈ 1.12 µM)	2 (≈ 4.47 µM)	–	–	–	–	–	–	–
C[C@@](CCn1ncc2c(F)c(C#Cc3ccc(C4(CO)COC4)cc3)ccc21)(C(=O)NO)S(C)(=O)=O [Example 40, (R)-4-(4-fluoro-5-((4-(3-(hydroxymethyl)oxetan-3-yl)phenyl)ethynyl)-1H-indazol-1-yl)-N-hydroxy-2-methyl-2-(methylsulfonyl)butanamide]	0.5 (≈ 0.97 µM)	0.5 (≈ 0.97 µM)	1 (≈ 1.94 µM)	4 (≈ 7.76 µM)	–	–	–	–	–	–	–
C[C@@](CCn1ncc2cc(C#CC#C[C@@H]3C[C@H]3CO)ccc21)(C(=O)NO)S(C)(=O)=O [Example 42, (R)—N-hydroxy-4-(5-(((1R,2R)-2-(hydroxymethyl)cyclopropyl)buta-1,3-diyn-1-yl)-1H-indazol-1-yl)-2-methyl-2-(methylsulfonyl)butanamide]	32 (≈ 74.5 µM)	≤ 0.063	0.25 (≈ 0.582 µM)	0.5 (≈ 1.16 µM)	–	–	–	–	–	–	–
C[C@@](CCn1ccc2cc(C#Cc3ccc(CO)cc3F)ccc21)(C(=O)NO)S(C)(=O)=O [Example 43, (R)-4-(5-((2-fluoro-4-(hydroxymethyl)phenyl)ethynyl)-1H-indol-1-yl)-N-hydroxy-2-methyl-2-(methylsulfonyl)butanamide]	16 (≈ 34.9 µM)	0.5 (≈ 1.09 µM)	0.5 (≈ 1.09 µM)	1 (≈ 2.18 µM)	–	–	–	–	–	–	–
C[C@@](CCn1ccc2cc(C#Cc3ccc([C@@H](O)CO)cc3)ccc21)(C(=O)NO)S(C)(=O)=O [Example 44, (R)-4-(5-((4-((R)-1,2-dihydroxyethyl)phenyl)ethynyl)-1H-indol-1-yl)-N-hydroxy-2-methyl-2-(methylsulfonyl)butanamide]	8 (≈ 17 µM)	0.125 (≈ 0.266 µM)	0.25 (≈ 0.531 µM)	2 (≈ 4.25 µM)	–	–	–	–	–	–	–
C[C@@](CCn1ccc2cc(C#Cc3ccc(CCO)cc3)ccc21)(C(=O)NO)S(C)(=O)=O [Example 45, (R)—N-hydroxy-4-(5-((4-(2-hydroxyethyl)phenyl)ethynyl)-1H-indol-1-yl)-2-methyl-2-(methylsulfonyl)butanamide]	8 (≈ 17.6 µM)	≤ 0.063	0.25 (≈ 0.55 µM)	1 (≈ 2.2 µM)	–	–	–	–	–	–	–
C[C@@](CCn1ncc2cc(C#CC#C[C@H]3C[C@@H]3CO)c(F)cc21)(C(=O)NO)S(C)(=O)=O [Example 46, (R)-4-(6-fluoro-5-(((1S,2S)-2-(hydroxymethyl)cyclopropyl)buta-1,3-diyn-1-yl)-1H-indazol-1-yl)-N-hydroxy-2-methyl-2-(methylsulfonyl)butanamide]	> 32	≤ 0.063	0.125 (≈ 0.279 µM)	1 (≈ 2.23 µM)	–	–	–	–	–	–	–
C[C@@](CCn1ncc2cc(C#Cc3ccc(CCO)cc3)c(F)cc21)(C(=O)NO)S(C)(=O)=O [Example 47, (R)-4-(6-fluoro-5-((4-(2-hydroxyethyl)phenyl)ethynyl)-1H-indazol-1-yl)-N-hydroxy-2-methyl-2-(methylsulfonyl)butanamide]	0.25 (≈ 0.528 µM)	≤ 0.063	0.25 (≈ 0.528 µM)	2 (≈ 4.22 µM)	–	–	–	–	–	–	–
C[C@@](CCn1ncc2cc(C#Cc3ccc(C4(COP(=O)(O)O)CC4)cc3)ccc21)(C(=O)NO)S(C)(=O)=O [Example 48, (R)-(1-(4-((1-(4-(hydroxyamino)-3-methyl-3-(methylsulfonyl)-4-oxobutyl)-1H-indazol-5-yl)ethynyl)phenyl)cyclopropyl)methyl dihydrogen phosphate]	–	–	–	–	16	1	16	–	–	–	–
CN(C)CC(=O)OCC1(c2ccc(C#Cc3ccc4c(cnn4CC[C@](C)(C(=O)NO)S(C)(=O)=O)c3)cc2)CC1.O=CO [Example 49, (R)-(1-(4-((1-(4-(hydroxyamino)-3-methyl-3-(methylsulfonyl)-4-oxobutyl)-1H-indazol-5-yl)ethynyl)phenyl)cyclopropyl)methyl dimethylglycinate formate]	2	1	2	16	1	1	0.125	–	–	–	–
C[C@@](CCn1ncc2cc(C#CC#CC[C@@H](O)CO)ccc21)(C(=O)NO)S(C)(=O)=O [Example 50, (R)-4-(5-((R)-6,7-dihydroxyhepta-1,3-diyn-1-yl)-1H-indazol-1-yl)-N-hydroxy-2-methyl-2-(methylsulfonyl)butanamide]	32 (≈ 73.8 µM)	4 (≈ 9.23 µM)	4 (≈ 9.23 µM)	2 (≈ 4.61 µM)	–	–	–	–	–	–	–
C[C@@](CCn1ncc2cc(C#CC#C[C@@H]3C[C@@H](O)[C@@H](O)C3)ccc21)(C(=O)NO)S(C)(=O)=O [Example 51, (R)-4-(5-(((1s,3R,4S)-3,4-dihydroxycyclopentyl)buta-1,3-diyn-1-yl)-1H-indazol-1-yl)-N-hydroxy-2-methyl-2-(methylsulfonyl)butanamide]	–	–	–	–	–	–	–	4	0.5	1	1
C[C@@](CCn1ncc2cc(C#Cc3ccc(C4(CO)CC4)cc3)ccc21)(C(=O)NO)S(C)(=O)=O [Example 52, (R)—N-hydroxy-4-(5-((4-(1-(hydroxymethyl)cyclopropyl)phenyl)ethynyl)-1H-indazol-1-yl)-2-methyl-2-(methylsulfonyl)butanamide]	0.125 (≈ 0.26 µM)	≤ 0.063	0.25 (≈ 0.519 µM)	2 (≈ 4.15 µM)	–	–	–	–	–	–	–
C[C@@](CCn1ncc2cc(C#CC#CC34CC(CO)(C3)C4)ccc21)(C(=O)NO)S(C)(=O)=O [Example 53, (R)—N-hydroxy-4-(5-((3-(hydroxymethyl)bicyclo[1.1.1]pentan-1-yl)buta-1,3-diyn-1-yl)-1H-indazol-1-yl)-2-methyl-2-(methylsulfonyl)butanamide]	1 (≈ 2.2 µM)	0.125 (≈ 0.274 µM)	0.25 (≈ 0.549 µM)	1 (≈ 2.2 µM)	–	–	–	–	–	–	–
C[C@@](CCn1ncc2cc(C#CC#CC3(CN)CC3)ccc21)(C(=O)NO)S(C)(=O)=O [Example 54, (R)-4-(5-((1-(aminomethyl)cyclopropyl)buta-1,3-diyn-1-yl)-1H-indazol-1-yl)-N-hydroxy-2-methyl-2-(methylsulfonyl)butanamide]	> 32	8 (≈ 18.7 µM)	16 (≈ 37.3 µM)	8 (≈ 18.7 µM)	–	–	–	–	–	–	–
(R)—N-hydroxy-4-(5-((3-hydroxythietan-3-yl)buta-1,3-diyn-1-yl)-1H-indol-1-yl)-2-methyl-2-(methylsulfonyl)butanamide [Example 32]	–	–	–	–	–	–	–	16	0.125	0.25	2
